Experimental data published in ChEMBL document CHEMBL4393691, “Design, synthesis and antitumor evaluation of novel celastrol derivatives” (Eur J Med Chem, 2019).
Active and inactive are the calls of the source. No cut-off for these calls is given here.

Assays:
[1] = tested on: A549; test: Induction of apoptosis in human A549 cells incubated for 48 hrs by Hoechst 33342 staining-based fluorescence microscopy; assay type: functional, cell-based
[2] = tested on: A549; test: Cell cycle arrest in human A549 cells assessed as accumulation at G0/G1 phase by propidium iodide staining based flow cytometric analysis; assay type: functional
[3] = tested on: MCF7; test: Antiproliferative activity against human MCF7 cells assessed as reduction in cell viability at 1 uM incubated for 48 hrs by MTT assay relative to control; assay type: functional; conditions: MCF7, 48 h
[4] = tested on: HepG2; test: Cytotoxicity against human HepG2 cells assessed as reduction in cell viability incubated for 48 hrs by MTT assay; assay type: functional, cell-based; conditions: HepG2, 48 h
[5] = biological target: RAC-alpha serine/threonine-protein kinase (Homo sapiens) (UniProt P31749); test: Inhibition of Akt phosphorylation in human A549 cells incubated for 8 hrs by Western blot analysis; assay type: cell-based
Chain of RAC-alpha serine/threonine-protein kinase (Homo sapiens) (P31749 whole entry): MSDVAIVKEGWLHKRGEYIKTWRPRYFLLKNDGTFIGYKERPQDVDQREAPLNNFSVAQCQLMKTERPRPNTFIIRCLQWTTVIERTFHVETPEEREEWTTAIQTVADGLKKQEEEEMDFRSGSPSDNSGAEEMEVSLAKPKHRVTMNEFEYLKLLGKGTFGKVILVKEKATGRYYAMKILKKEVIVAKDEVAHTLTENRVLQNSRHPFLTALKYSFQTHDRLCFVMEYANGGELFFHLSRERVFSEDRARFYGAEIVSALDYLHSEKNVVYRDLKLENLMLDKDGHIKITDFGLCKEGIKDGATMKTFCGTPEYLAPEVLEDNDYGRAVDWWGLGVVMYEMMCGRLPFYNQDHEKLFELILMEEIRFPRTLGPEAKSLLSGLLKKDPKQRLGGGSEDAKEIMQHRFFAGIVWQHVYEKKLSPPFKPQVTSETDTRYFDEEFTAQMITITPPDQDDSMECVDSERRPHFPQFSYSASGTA

[6] = tested on: A549; test: Induction of apoptosis in human A549 cells assessed as decrease in Cdk4 expression incubated for 8 hrs by western blot analysis; assay type: functional, cell-based
[7] = tested on: A549; test: Induction of apoptosis in human A549 cells assessed as increase in BAX expression incubated for 8 hrs by western blot analysis; assay type: functional, cell-based
[8] = tested on: A549; test: Cell cycle arrest in human A549 cells assessed as accumulation at S phase at 0.06 uM incubated for 12 hrs by propidium iodide staining based flow cytometry analysis (Rvb=38.46%); assay type: functional
[9] = tested on: A549; test: Cell cycle arrest in human A549 cells assessed as accumulation at G2 phase at 0.06 uM incubated for 12 hrs by propidium iodide staining based flow cytometry analysis (Rvb=11.7%); assay type: functional
[10] = tested on: A549; test: Cell cycle arrest in human A549 cells assessed as accumulation at G1 phase at 0.18 uM incubated for 12 hrs by propidium iodide staining based flow cytometry analysis (Rvb=49.49%); assay type: functional
[11] = tested on: A549; test: Cell cycle arrest in human A549 cells assessed as accumulation at G2 phase at 0.18 uM incubated for 12 hrs by propidium iodide staining based flow cytometry analysis (Rvb=11.7%); assay type: functional
[12] = tested on: A549; test: Cell cycle arrest in human A549 cells assessed as accumulation at G2 phase at 0.06 uM incubated for 24 hrs by propidium iodide staining based flow cytometry analysis (Rvb=18.01%); assay type: functional
[13] = tested on: A549; test: Cell cycle arrest in human A549 cells assessed as accumulation at G1 phase at 0.18 uM incubated for 24 hrs by propidium iodide staining based flow cytometry analysis (Rvb=55.3%); assay type: functional
[14] = tested on: A549; test: Cell cycle arrest in human A549 cells assessed as accumulation at S phase at 0.18 uM incubated for 24 hrs by propidium iodide staining based flow cytometry analysis (Rvb=27.61%); assay type: functional
[15] = tested on: A549; test: Cell cycle arrest in human A549 cells assessed as accumulation at G2 phase at 0.18 uM incubated for 24 hrs by propidium iodide staining based flow cytometry analysis (Rvb=18.01%); assay type: functional
[16] = tested on: A549; test: Cell cycle arrest in human A549 cells assessed as accumulation at G1 phase at 0.27 uM incubated for 24 hrs by propidium iodide staining based flow cytometry analysis (Rvb=55.3%); assay type: functional
[17] = tested on: A549; test: Cell cycle arrest in human A549 cells assessed as accumulation at G2 phase at 0.27 uM incubated for 24 hrs by propidium iodide staining based flow cytometry analysis (Rvb=18.01%); assay type: functional
[18] = tested on: A549; test: Induction of apoptosis in human A549 cells assessed as increase in cleaved PARP expression at 0.5 to 2 uM incubated for 8 hrs by western blot analysis; assay type: functional, cell-based
[19] = tested on: A549; test: Induction of apoptosis in human A549 cells assessed as increase in Fas expression at 0.5 to 2 uM incubated for 8 hrs by western blot analysis; assay type: functional, cell-based
[20] = tested on: A549; test: Induction of apoptosis in human A549 cells assessed as increase in cleaved caspase8 expression at 0.5 to 2 uM incubated for 8 hrs by western blot analysis; assay type: functional, cell-based
[21] = tested on: A549; test: Induction of apoptosis in human A549 cells assessed as viable cells at 0.2 uM incubated for 24 hrs by AnnexinV-FITC/propidium iodide/propidium iodide staining-based flow cytometric analysis (reference value: 88.1%); assay type: functional; conditions: A549, 24 h, read-out: Activity
[22] = tested on: A549; test: Induction of apoptosis in human A549 cells assessed as early apoptotic cells at 0.2 uM incubated for 24 hrs by AnnexinV-FITC/propidium iodide/propidium iodide staining-based flow cytometric analysis (reference value: 4.1%); assay type: functional
[23] = tested on: A549; test: Induction of apoptosis in human A549 cells assessed as late apoptotic cells at 0.2 uM incubated for 24 hrs by AnnexinV-FITC/propidium iodide/propidium iodide staining-based flow cytometric analysis (reference value: 4.2%); assay type: functional
[24] = tested on: A549; test: Induction of apoptosis in human A549 cells assessed as early apoptotic cells at 0.4 uM incubated for 24 hrs by AnnexinV-FITC/propidium iodide staining-based flow cytometric analysis (reference value: 4.1%); assay type: functional
[25] = tested on: A549; test: Induction of apoptosis in human A549 cells assessed as necrotic cells at 0.4 uM incubated for 24 hrs by AnnexinV-FITC/propidium iodide staining-based flow cytometric analysis (reference value: 3.6%); assay type: functional
[26] = tested on: A549; test: Induction of apoptosis in human A549 cells assessed as viable cells at 0.6 uM incubated for 24 hrs by AnnexinV-FITC/propidium iodide staining-based flow cytometric analysis (reference value: 88.1%); assay type: functional; conditions: A549, 24 h, read-out: Activity
[27] = tested on: A549; test: Induction of apoptosis in human A549 cells assessed as early apoptotic cells at 0.6 uM incubated for 24 hrs by AnnexinV-FITC/propidium iodide staining-based flow cytometric analysis (reference value: 4.1%); assay type: functional
[28] = tested on: A549; test: Induction of apoptosis in human A549 cells assessed as late apoptotic cells at 0.6 uM incubated for 24 hrs by AnnexinV-FITC/propidium iodide staining-based flow cytometric analysis (reference value: 4.2%); assay type: functional
[29] = tested on: A549; test: Induction of apoptosis in human A549 cells assessed as early apoptotic cells at 0.8 uM incubated for 24 hrs by AnnexinV-FITC/propidium iodide staining-based flow cytometric analysis (reference value: 4.1%); assay type: functional
[30] = tested on: A549; test: Induction of apoptosis in human A549 cells assessed as late apoptotic cells at 0.8 uM incubated for 24 hrs by AnnexinV-FITC/propidium iodide staining-based flow cytometric analysis (reference value: 4.2%); assay type: functional
[31] = tested on: A549; test: Induction of apoptosis in human A549 cells assessed as necrotic cells at 0.8 uM incubated for 24 hrs by AnnexinV-FITC/propidium iodide staining-based flow cytometric analysis (reference value: 3.6%); assay type: functional
[32] = tested on: A549; test: Induction of apoptosis in human A549 cells assessed as early apoptotic cells at 1.2 uM incubated for 24 hrs by AnnexinV-FITC/propidium iodide staining-based flow cytometric analysis (reference value: 4.1%); assay type: functional
[33] = tested on: A549; test: Induction of apoptosis in human A549 cells assessed as late apoptotic cells at 1.2 uM incubated for 24 hrs by AnnexinV-FITC/propidium iodide staining-based flow cytometric analysis (reference value: 4.2%); assay type: functional
[34] = tested on: A549; test: Induction of apoptosis in human A549 cells assessed as necrotic cells at 1.2 uM incubated for 24 hrs by AnnexinV-FITC/propidium iodide staining-based flow cytometric analysis (reference value: 3.6%); assay type: functional
[35] = tested on: A549; test: Induction of apoptosis in human A549 cells assessed as nuclear fragmentation at 0.06 to 0.18 uM incubated for 48 hrs by Hoechst 33342 staining-based fluorescence microscopy; assay type: functional, cell-based
[36] = tested on: A549; test: cells; conditions: Homo sapiens, A549, 48 h

In the case of `COC(=O)/C=C\c1ccc(OC)c(OCCOC(=O)[C@]2(C)CC[C@]3(C)CC[C@]4(C)C5=CC=C6C(=CC(=O)C(O)=C6C)[C@]5(C)CC[C@@]4(C)[C@@H]3C2)c1`, the Activity [1] is reported as “Dose-dependent effect”, the Activity [2] is reported as “Dose-dependent effect” and the inhibition at 1 µM [3] is reported as 87.7%. For the same molecule, the IC50 [4] was 0.26 µM, the inhibition [5] was “Dose-dependent effect” and the Activity [6] was “Dose-dependent effect”. The Activity [7] was “Active”, the Activity [8] was 36.32% and the Activity [9] was 12.14%. It also gave an Activity [10] of 56.86%, an Activity [11] of 10.44% and an Activity [12] of 15.7%. For the same molecule, the Activity [13] was 61.95%, the Activity [14] was 29.7% and the Activity [15] was 10.87%. For the same molecule, the Activity [16] was 68.04%, the Activity [17] was 9.56% and the Activity [18] was “Dose-dependent effect”. The Activity [19] was “Dose-dependent effect”, the Activity [20] was “Dose-dependent effect” and the viability at 0.2 µM [21] was 77.7%. It also gave an Activity [22] of 5.3%, an Activity [23] of 12.7% and an Activity [24] of 10%. The Activity [25] was 3.7%, the viability at 0.6 µM [26] was 50.6% and the Activity [27] was 17.3%. It also gave an Activity [28] of 27.6%, an Activity [29] of 16.1% and an Activity [30] of 43.3%. For the same molecule, the Activity [31] was 6.9%, the Activity [32] was 11.3% and the Activity [33] was 52.2%. The Activity [34] was 11.9%, the Activity [35] was “Active” and the IC50 [36] was 0.15 µM.
